The values that follow come from patent US11787825B2 (priority 2021, dated 2023).

One data set is described as follows: physchem. The conditions noted are these: 25 °C, thermodynamic from solid.
Where [1] appears, read: 0.1N HCL, 1.0% DMSO, 24-hour incubation at ambient temperature, maximum theoretical compound concentration 100 μM.
Setting [2] is: 1×PBS buffer (pH 7.4), 1.0% DMSO, 24-hour incubation at ambient temperature, maximum theoretical compound concentration 100 μM.
Setting [3] is: fasted state simulated intestinal fluid (FaSSIF), fassif.
The mark [4] stands for this setting: fed state simulated intestinal fluid (FeSSIF), fessif.

SMILES strings stand for the structures. Values after ≈ are worked out from the molar mass of the structure shown. Read-outs that look alike come from different tables or passages of the source.

Usually solubility stands for how much of the substance goes into solution per volume. Lower therefore signals a poorly soluble substance.

With `CC(C)(C#Cc1ccc(-c2ccc(Cl)c3c(N(C(=O)CCC(CC(=O)O)NC(=O)OCOP(=O)(O)O)S(C)(=O)=O)nn(CC(F)(F)F)c23)c([C@H](Cc2cc(F)cc(F)c2)NC(=O)Cn2nc(C(F)(F)F)c3c2C(F)(F)[C@@H]2C[C@H]32)n1)S(C)(=O)=O` (stereo in doubt) [Compound 34, (R)-6-(N-(4-chloro-7-(2-((S)-1-(2-((3bS,4aR)-5,5-difluoro-3-(trifluoromethyl)-3b,4,4a,5-tetrahydro-1H-cyclopropa[3,4]cyclopenta[1,2-c]pyrazol-1-yl)acetamido)-2-(3,5-difluorophenyl)ethyl)-6-(3-methyl-3-(methylsulfonyl)but-1-yn-1-yl)pyridin-3-yl)-1-(2,2,2-trifluoroethyl)-1H-indazol-3-yl)methylsulfonamido)-6-oxo-3-((((phosphonooxy)methoxy)carbonyl)amino)hexanoic acid], the “pH 2 solubility” value under setting [1] worked out at 3 μM. The “pH 7 solubility” value under setting [2] was determined as 75 μM. The solubility in the data set “physchem” (setting [3]) is above 2840 µg/mL; in the data set “physchem” (setting [4]) it was 454 µg/mL (≈ 359 µM).
On to `CC(C)(C#Cc1ccc(-c2ccc(Cl)c3c(N(C(=O)/C=C/C(=O)O)S(C)(=O)=O)nn(CC(F)(F)F)c23)c([C@H](Cc2cc(F)cc(F)c2)NC(=O)Cn2nc(C(F)(F)F)c3c2C(F)(F)[C@@H]2C[C@H]32)n1)S(C)(=O)=O` [Compound 1, (E)-4-(N-(4-chloro-7-(2-((S)-1-(2-((3bS,4aR)-5,5-difluoro-3-(trifluoromethyl)-3b,4,4a,5-tetrahydro-1H-cyclopropa[3,4]cyclopenta[1,2-c]pyrazol-1-yl)acetamido)-2-(3,5-difluorophenyl)ethyl)-6-(3-methyl-3-(methylsulfonyl)but-1-yn-1-yl)pyridin-3-yl)-1-(2,2,2-trifluoroethyl)-1H-indazol-3-yl)methylsulfonamido)-4-oxobut-2-enoic acid], for which the “pH 7 solubility” value is on record as 1/86 μM. For the same compound, where the note is “pH 2”, the “pH 2 solubility” value is 1/86 μM. In addition, in the data set “physchem” (setting [3]), the concentration in solution (solubility) was 321 µg/mL (≈ 301 µM). The same compound had a solubility in “physchem” (setting [4]) of 45 µg/mL (≈ 42.2 µM).
With `CC(C)(C#Cc1ccc(-c2ccc(Cl)c3c(N(C(=O)/C=C/C(=O)N[C@@H](CC(=O)O)C(=O)O)S(C)(=O)=O)nn(CC(F)(F)F)c23)c([C@H](Cc2cc(F)cc(F)c2)NC(=O)Cn2nc(C(F)(F)F)c3c2C(F)(F)[C@@H]2C[C@H]32)n1)S(C)(=O)=O` [Compound 2, ((E)-4-(N-(4-chloro-7-(2-((S)-1-(2-((3bS,4aR)-5,5-difluoro-3-(trifluoromethyl)-3b,4,4a,5-tetrahydro-1H-cyclopropa[3,4]cyclopenta[1,2-c]pyrazolyl)acetamido)-2-(3,5-difluorophenyl)ethyl)-6-(3-methyl-3-(methylsulfonyl)but-1-ynyl)pyridin-3-yl)-1-(2,2,2-trifluoroethyl)-1H-indazol-3-yl)methylsulfonamido)-4-oxobutenoyl)-L-aspartic acid], the “pH 7 solubility” value is reported as 1/95 μM. Also, the “pH 2 solubility” value (pH 2) was 1/95 μM. In “physchem” (setting [3]), this compound had a solubility of 810 µg/mL (≈ 686 µM). The compound further registered a solubility in “physchem” (setting [4]) of 655 µg/mL (≈ 554 µM).
Consider `CN(C)CC(=O)N(c1nn(CC(F)(F)F)c2c(-c3ccc(C#CC(C)(C)S(C)(=O)=O)nc3[C@H](Cc3cc(F)cc(F)c3)NC(=O)Cn3nc(C(F)(F)F)c4c3C(F)(F)[C@@H]3C[C@H]43)ccc(Cl)c12)S(C)(=O)=O` [Compound 4, N-(4-chloro-7-(2-((S)-1-(2-((3bS,4aR)-5,5-difluoro-3-(trifluoromethyl)-3b,4,4a,5-tetrahydro-1H-cyclopropa[3,4]cyclopenta[1,2-c]pyrazol-1-yl)acetamido)-2-(3,5-difluorophenyl)ethyl)-6-(3-methyl-3-(methylsulfonyl)but-1-yn-1-yl)pyridin-3-yl)-1-(2,2,2-trifluoroethyl)-1H-indazol-3-yl)-2-(dimethylamino)-N-(methylsulfonyl)acetamide], for which the “pH 2 solubility” value under setting [1] turned out to be 42 μM. Under setting [2], the “pH 7 solubility” value was determined as 1 μM. In the data set “physchem” (setting [4]), the concentration in solution (solubility) came to 6 µg/mL (≈ 5.7 µM).
Regarding `CN(C)CCCC[C@@H](C(=O)N(c1nn(CC(F)(F)F)c2c(-c3ccc(C#CC(C)(C)S(C)(=O)=O)nc3[C@H](Cc3cc(F)cc(F)c3)NC(=O)Cn3nc(C(F)(F)F)c4c3C(F)(F)[C@@H]3C[C@H]43)ccc(Cl)c12)S(C)(=O)=O)N(C)C` [Compound 6, (S)—N-(4-chloro-7-(2-((S)-1-(2-((3bS,4aR)-5,5-difluoro-3-(trifluoromethyl)-3b,4,4a,5-tetrahydro-1H-cyclopropa[3,4]cyclopenta[1,2-c]pyrazol-1-yl)acetamido)-2-(3,5-difluorophenyl)ethyl)-6-(3-methyl-3-(methylsulfonyl)but-1-yn-1-yl)pyridin-3-yl)-1-(2,2,2-trifluoroethyl)-1H-indazol-3-yl)-2,6-bis(dimethylamino)-N-(methylsulfonyl)hexanamide], the “pH 2 solubility” value under setting [1] is given as 100 μM. Moreover, the “pH 7 solubility” value under setting [2] came to 9 μM. Also, the solubility in the data set “physchem” (setting [3]) was 21 µg/mL (≈ 18.2 µM); in “physchem” (setting [4]) it was 1 µg/mL (≈ 0.868 µM).
As for `C[C@H](N)C(=O)N(c1nn(CC(F)(F)F)c2c(-c3ccc(C#CC(C)(C)S(C)(=O)=O)nc3[C@H](Cc3cc(F)cc(F)c3)NC(=O)Cn3nc(C(F)(F)F)c4c3C(F)(F)[C@@H]3C[C@H]43)ccc(Cl)c12)S(C)(=O)=O` [Compound 18, (S)-2-amino-N-(4-chloro-7-(2-((S)-1-(2-((3bS,4aR)-5,5-difluoro-3-(trifluoromethyl)-3b,4,4a,5-tetrahydro-1H-cyclopropa[3,4]cyclopenta[1,2-c]pyrazol-1-yl)acetamido)-2-(3,5-difluorophenyl)ethyl)-6-(3-methyl-3-(methylsulfonyl)but-1-yn-1-yl)pyridin-3-yl)-1-(2,2,2-trifluoroethyl)-1H-indazol-3-yl)-N-(methylsulfonyl)propenamide], the “pH 2 solubility” value under setting [1] stood at 60 μM. Also, the “pH 7 solubility” value under setting [2] is 1 μM. For the same compound, the solubility in “physchem” (setting [3]) is 0.5 µg/mL (≈ 0.481 µM); in “physchem” (setting [4]), 0.4 µg/mL (≈ 0.385 µM).
With `CC(C)(C#Cc1ccc(-c2ccc(Cl)c3c(N(C(=O)[C@@H](N)CCCNC(=N)N)S(C)(=O)=O)nn(CC(F)(F)F)c23)c([C@H](Cc2cc(F)cc(F)c2)NC(=O)Cn2nc(C(F)(F)F)c3c2C(F)(F)[C@@H]2C[C@H]32)n1)S(C)(=O)=O` [Compound 22, 2-amino-N-(4-chloro-7-(2-((S)-1-(2-((3bS,4aR)-5,5-difluoro-3-(trifluoromethyl)-3b,4,4a,5-tetrahydro-1H-cyclopropa[3,4]cyclopenta[1,2-c]pyrazolyl)acetamido)-2-(3,5-difluorophenyl)ethyl)-6-(3-methyl-3-(methylsulfonyl)but-1-ynyl)pyridin-3-yl)-1-(2,2,2-trifluoroethyl)-1H-indazol-3-yl)-5-guanidino-N-(methylsulfonyl)pentanamide], under setting [1], the “pH 2 solubility” value is 100 μM. The “pH 7 solubility” value under setting [2] came out at 27 μM. The concentration in solution in the data set “physchem” (setting [4]) (solubility) was 0.2 µg/mL (≈ 0.178 µM).
`CC(C)(C#Cc1ccc(-c2ccc(Cl)c3c(N(C(=O)CCCOP(=O)(O)O)S(C)(=O)=O)nn(CC(F)(F)F)c23)c([C@H](Cc2cc(F)cc(F)c2)NC(=O)Cn2nc(C(F)(F)F)c3c2C(F)(F)[C@@H]2C[C@H]32)n1)S(C)(=O)=O` [Compound 27, 4-(N-(4-chloro-7-(2-((S)-1-(2-((3bS,4aR)-5,5-difluoro-3-(trifluoromethyl)-3b,4,4a,5-tetrahydro-1H-cyclopropa[3,4]cyclopenta[1,2-c]pyrazol-1-yl)acetamido)-2-(3,5-difluorophenyl)ethyl)-6-(3-methyl-3-(methylsulfonyl)but-1-yn-1-yl)pyridin-3-yl)-1-(2,2,2-trifluoroethyl)-1H-indazol-3-yl)methylsulfonamido)-4-oxobutyl dihydrogen phosphate]: the “pH 2 solubility” value under setting [1] is recorded as 1 μM. Also, the “pH 7 solubility” value under setting [2] stood at 26 μM. Further, the solubility was 190 µg/mL in “physchem” (setting [3]) and 450 µg/mL in “physchem” (setting [4]).
For `CC(C)(C#Cc1ccc(-c2ccc(Cl)c3c(N(C(=O)CCCC(=O)OCOP(=O)(O)O)S(C)(=O)=O)nn(CC(F)(F)F)c23)c([C@H](Cc2cc(F)cc(F)c2)NC(=O)Cn2nc(C(F)(F)F)c3c2C(F)(F)[C@@H]2C[C@H]32)n1)S(C)(=O)=O` [Compound 29, (phosphonooxy)methyl 5-(N-(4-chloro-7-(2-((S)-1-(2-((3bS,4aR)-5,5-difluoro-3-(trifluoromethyl)-3b,4,4a,5-tetrahydro-1H-cyclopropa[3,4]cyclopenta[1,2-c]pyrazol-1-yl)acetamido)-2-(3,5-difluorophenyl)ethyl)-6-(3-methyl-3-(methylsulfonyl)but-1-yn-1-yl)pyridin-3-yl)-1-(2,2,2-trifluoroethyl)-1H-indazol-3-yl)methylsulfonamido)-5-oxopentanoate] the same measures were 2 μM, 92 μM, 268 µg/mL (≈ 225 µM) and 130 µg/mL (≈ 109 µM).
For the compound `CC(C)(C#Cc1ccc(-c2ccc(Cl)c3c(N(C(=O)CNC(=O)OCOP(=O)(O)O)S(C)(=O)=O)nn(CC(F)(F)F)c23)c([C@H](Cc2cc(F)cc(F)c2)NC(=O)Cn2nc(C(F)(F)F)c3c2C(F)(F)[C@@H]2C[C@H]32)n1)S(C)(=O)=O` [Compound 35, (phosphonooxy)methyl (2-(N-(4-chloro-7-(2-((S)-1-(2-((3bS,4aR)-5,5-difluoro-3-(trifluoromethyl)-3b,4,4a,5-tetrahydro-111-cyclopropa[3,4]cyclopenta[1,2-c]pyrazol-1-yl)acetamido)-2-(3,5-difluorophenyl)ethyl)-6-(3-methyl-3-(methylsulfonyl)but-1-yn-1-yl)pyridin-3-yl)-1-(2,2,2-trifluoroethyl)-1H-indazol-3-yl)methylsulfonamido)-2-oxoethyl)carbamate], under setting [1], the “pH 2 solubility” value was 2 μM. The “pH 7 solubility” value under setting [2] stood at 48 μM. The compound further returned a solubility in “physchem” (fassif) of 883 µg/mL (≈ 749 µM).
